From patent publication US4652575A, “2-(ethylene-thio methyl furanyl)amino thiazole derivatives having acid secretion inhibiting activity” (Medosan Industrie Biochimiche Riunite S.p.A., priority 1984, dated 1987)
Like-named read-outs stand apart in the source and are kept apart here.

Legend:
histamine H2 receptors [1] = target: T1, histamine H2 receptors (Cavia porcellus, UniProt P47747); assay: Antagonistic activity to the histamine H2 receptors "in vitro" on insulated atrium auricolas of Guinea pig heart; conditions: guinea pig, 0.5 h; for inhibition at 10 µM: read-out: Antagonizing activity to histamine H2 receptors, compound 1·10^-5 M/L; for inhibition at 1 µM: read-out: Antagonizing activity to histamine H2 receptors, compound 1·10^-6 M/L; for inhibition at 0.1 µM: read-out: Antagonizing activity to histamine H2 receptors, compound 1·10^-7 M/L
T1 construct: tests on insulated atrium auricolas of Guinea pig heart; from tissue; host or cells: isolated guinea pig heart atrium
Procedure: (§1) The preparations were a solution of the substances in 2.5% citric acid for the "in vitro" test and 5% citric acid for the "in vivo" test respectively. Citric acid was diluted in normal physiologic saline at neutral pH.
This activity was evaluated "in vitro" by carrying out tests on insulated atrium auricolas of Guinea pig heart. […] Metering was carried out by placing the preparation into a vessel containing a Ringer-Locke solution wherein pure oxygen was bubbling, at a temperature of 37° C. A response of the organ "in vitro" was first established at cumulative histamine doses of 2.5.10^-7, 5.10^-7, 10^-6, 5.10^-6, 10^-5 M/L. After obtaining two constant lines with histamine at a time interval of one hour from one another, the substances under test were added to the bath and after a 30 minutes contact with the preparation, a new histamine response line in the presence of the substance under test was drawn. The activity was tested at various concentrations of the new compounds (10^-5, 10^-6, 10^-7 and in one case 10^-8 M/L).

gastric secretion = assay: Activity on gastric secretion "in vivo" (volume and total acidity of gastric juice after pylorus tieing, Shay); design: species or system male Wistar rats; conditions: for Total acidity gastric juice secretion / Volume gastric juice secretion / change in vivo at 20 mg/kg: 20 mg/kg oral
Procedure: as §1
The ability of the compounds according to the present invention to inhibit the gastric secretion was studied "in vivo" both by evaluating the volume reduction of gastric juice, and by measuring the total acidity of same after administration of the substances under test according to the Takeda method (see the aforementioned literature).
To this end, tests have been made on male Wistar rats of an average weight of 200 g. The animals, 10 for each substance, were placed into individual cages provided with ground grating in order to avoid coprophagy, without food but with free access to water for 24 hours before test. […] Four hours later the animals were sacrificed and the gastric juice was collected, of which the volume expressed in ml and the total acidity expressed in mEq was measured. The gastric juice ([…] ) was titrated with 0.1N NaOH to pH 7 to determine the acid concentration. The total acidity was then calculated as the product of the total volume of gastric juice by the acid concentration.

[2] = Acute toxicity (DL50) in rat; conditions: in vivo, po
Text: The animals were kept under observation by checking mortality and possible pain signs for 15 days from start of test.

histamine H2 receptors [3] = target: T1, histamine H2 receptors; conditions: Daly M. J., Br. J. Pharmac., 72, 49, 1982; cited from earlier work
gastric acid secretion = conditions: experimental tests on animals and humans; prior art; cited from earlier work

T1 sequence (P47747 whole entry): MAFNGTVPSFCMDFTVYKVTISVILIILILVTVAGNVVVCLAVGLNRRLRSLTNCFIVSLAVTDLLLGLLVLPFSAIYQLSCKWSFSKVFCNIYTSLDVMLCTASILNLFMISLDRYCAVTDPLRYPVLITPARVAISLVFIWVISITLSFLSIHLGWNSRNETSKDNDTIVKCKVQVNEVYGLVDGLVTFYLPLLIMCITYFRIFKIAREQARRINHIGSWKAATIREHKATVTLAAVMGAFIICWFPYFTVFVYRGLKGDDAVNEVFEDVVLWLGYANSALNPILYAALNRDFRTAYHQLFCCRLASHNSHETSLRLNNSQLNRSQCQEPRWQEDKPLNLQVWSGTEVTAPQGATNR

`CNC(=C[N+](=O)[O-])NCCSCc1ccc(CN(C)C)o1` [Ranitidine, reference compound] gave an inhibition at 10 µM (histamine H2 receptors [1]; histamine 1·10^-5 M/L) of 90%, an inhibition at 10 µM (histamine H2 receptors [1]; histamine 1·10^-6 M/L) of 100% and an inhibition at 10 µM (histamine H2 receptors [1]; histamine 2,5·10^-7 M/L) of 100%. The inhibition at 10 µM (histamine H2 receptors [1]; histamine 5·10^-6 M/L) was 95%, the inhibition at 10 µM (histamine H2 receptors [1]; histamine 5·10^-7 M/L) was 100% and the inhibition at 1 µM (histamine H2 receptors [1]; histamine 1·10^-5 M/L) was 36%. It also gave an inhibition at 1 µM (histamine H2 receptors [1]; histamine 1·10^-6 M/L) of 97%, an inhibition at 1 µM (histamine H2 receptors [1]; histamine 2,5·10^-7 M/L) of 100% and an inhibition at 1 µM (histamine H2 receptors [1]; histamine 5·10^-6 M/L) of 67%. For the same compound, the inhibition at 1 µM (histamine H2 receptors [1]; histamine 5·10^-7 M/L) was 100%, the inhibition at 0.1 µM (histamine H2 receptors [1]; histamine 1·10^-5 M/L) was 2% and the inhibition at 0.1 µM (histamine H2 receptors [1]; histamine 1·10^-6 M/L) was 45%. The inhibition at 0.1 µM (histamine H2 receptors [1]; histamine 2,5·10^-7 M/L) was 85%, the inhibition at 0.1 µM (histamine H2 receptors [1]; histamine 5·10^-6 M/L) was 25% and the inhibition at 0.1 µM (histamine H2 receptors [1]; histamine 5·10^-7 M/L) was 70%. For the same compound, the “Total acidity gastric juice secretion” value (gastric secretion; 6 hours before pilorus tieing) was 0,12 mEq/4 hours, the “Volume gastric juice secretion” value (gastric secretion; 6 hours before pilorus tieing) was 4,8 ml/4 hours and the “Total acidity gastric juice secretion” value (gastric secretion; 12 hours before pilorus tieing) was 0,16 mEq/4 hours. The “Volume gastric juice secretion” value (gastric secretion; 12 hours before pilorus tieing) was 4,9 ml/4 hours, the “Total acidity gastric juice secretion” value (gastric secretion; 24 hours before pilorus tieing) was 0,17 mEq/4 hours and the “Volume gastric juice secretion” value (gastric secretion; 24 hours before pilorus tieing) was 5,3 ml/4 hours. For the same compound, the “Total acidity gastric juice secretion” value (gastric secretion; 36 hours before pilorus tieing) was 0,16 mEq/4 hours, the “Volume gastric juice secretion” value (gastric secretion; 36 hours before pilorus tieing) was 5,4 ml/4 hours and the change in vivo at 20 mg/kg (gastric secretion; Rattus norvegicus, po, 6 hours before pilorus tieing, read-out: Total acidity gastric juice secretion, Variation %) was -29%. For the same compound, the change in vivo at 20 mg/kg (gastric secretion; Rattus norvegicus, po, 6 hours before pilorus tieing, read-out: Volume gastric juice secretion, Variation %) was -9%, the change in vivo at 20 mg/kg (gastric secretion; Rattus norvegicus, po, 12 hours before pilorus tieing, read-out: Total acidity gastric juice secretion, Variation %) was 6% and the change in vivo at 20 mg/kg (gastric secretion; Rattus norvegicus, po, 12 hours before pilorus tieing, read-out: Volume gastric juice secretion, Variation %) was -4%. For the same compound, the change in vivo at 20 mg/kg (gastric secretion; Rattus norvegicus, po, 24 hours before pilorus tieing, read-out: Total acidity gastric juice secretion, Variation %) was 0%, the change in vivo at 20 mg/kg (gastric secretion; Rattus norvegicus, po, 24 hours before pilorus tieing, read-out: Volume gastric juice secretion, Variation %) was -5% and the change in vivo at 20 mg/kg (gastric secretion; Rattus norvegicus, po, 36 hours before pilorus tieing, read-out: Total acidity gastric juice secretion, Variation %) was 0%. The change in vivo at 20 mg/kg (gastric secretion; Rattus norvegicus, po, 36 hours before pilorus tieing, read-out: Volume gastric juice secretion, Variation %) was -3%, the ED50 (gastric secretion; Rattus norvegicus, po, per os, 1 hour before pilorus tieing, read-out: DE50 in rat calculated on total acidity (mEq/4 hours)) was 5.2 mg/kg and the LD50 [2] was 2000 mg/kg. The LD50 at 360 h [2] was 1600 mg/kg, the “antagonism of histamine induced increase of contraction frequency of the insulated atrium (in words)” value (histamine H2 receptors [3]) was “competitively antagonize” and the “reduction of gastric acid secretion (in words)” value (gastric acid secretion) was “effective to reduce the gastric acid secretion”.
